# Measured values reported in US5883121A, “Epoxysuccinamide derivative or salt thereof, and medicine comprising the same” (Taiho Pharmaceutical Co., Ltd., priority 1995, dated 1999).
# pIC50: −log10 of the molar value. Where a name gives a salt, the structure may show the parent alone.
# What was measured:
# [1] = target: T1, cathepsin L (Rattus norvegicus, UniProt P07154); test: Determination of inhibition rate against cathepsin L; type: biochemical; details: for pIC50: cathepsin L from rat liver, substrate Z-Phe-Arg-MCA, pH 5.5, 30° C, 10 minutes; for B/L: IC50 against cathepsin B divided by IC50 against cathepsin L
# T1 construct: extracted from a rat liver and completely purified; from tissue; host or cells: rat liver
# Protocol: (§1) Determination of inhibition rate against cathepsin L, B and H […]
# (§2) Each cathepsin was diluted with a diluent (0.1% Brij 35) to adjust its concentration to 0.3 U (0.1 U: a concentration at which 1.0 nmol of MCA is released per minute at 37° C.). To 500 μl of this solution, were added 250 μl of an activator/buffer (340 mM sodium acetate, 60 mM acetic acid, 4 mM disodium EDTA; pH 5.5). After the mixture was incubated for 1 minute at 30° C., the sample solution of the predetermined concentration and […] of a substrate solution were added to conduct a reaction for 10 minutes.
# [2] = target: T2, cathepsin B (Rattus norvegicus, UniProt P00787); test: Determination of inhibition rate against cathepsin B; type: biochemical; details: cathepsin B from rat liver; substrate Z-Arg-Arg-MCA; pH 5.5; 30° C; 10 minutes
# T2 construct: extracted from a rat liver and completely purified; from tissue; host or cells: rat liver
# Protocol: as §1, §2
# T1 sequence (P07154 114-288 limits assumed): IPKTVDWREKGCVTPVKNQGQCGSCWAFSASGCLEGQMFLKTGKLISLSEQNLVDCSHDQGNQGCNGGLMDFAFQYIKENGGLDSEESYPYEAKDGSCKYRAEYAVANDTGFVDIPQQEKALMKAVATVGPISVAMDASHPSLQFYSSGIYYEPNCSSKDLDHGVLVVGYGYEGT
# T1 sequence (P07154 291-334 limits assumed): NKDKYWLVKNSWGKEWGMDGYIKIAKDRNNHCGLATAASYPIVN
# T2 sequence (P00787 129-333 limits assumed): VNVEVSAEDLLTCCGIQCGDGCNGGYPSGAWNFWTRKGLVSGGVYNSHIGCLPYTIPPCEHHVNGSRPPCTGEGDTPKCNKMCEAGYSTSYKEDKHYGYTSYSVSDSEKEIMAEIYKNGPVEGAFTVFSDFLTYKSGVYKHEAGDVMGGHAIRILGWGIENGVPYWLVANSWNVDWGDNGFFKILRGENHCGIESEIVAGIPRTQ
# T2 sequence (P00787 80-126 limits assumed): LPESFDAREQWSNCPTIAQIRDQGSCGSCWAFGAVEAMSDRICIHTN
smiles,measurement,setting,value
"NCCCC[C@H](NC(=O)[C@H]1O[C@@H]1C(=O)NCCc1ccccc1)C(=O)NC1c2ccccc2-c2ccccc21 [Example 6, Nα-[L-3-trans-(2-phenylethylcarbamoyl)oxirane-2-carbonyl]-L-lysine-9-fluorenylamide hydrochloride]",pIC50,[1],6.02
"NCCCC[C@H](NC(=O)[C@H]1O[C@@H]1C(=O)NC1Cc2ccccc2C1)C(=O)NC1c2ccccc2-c2ccccc21 [Example 10, Nα-[L-3-trans-(2-indanylcarbamoyl)oxirane-2-carbonyl]-L-lysine-9-fluorenylamide hydrochloride]",pIC50,[1],6.06
"NCCCC[C@H](NC(=O)[C@H]1O[C@@H]1C(=O)NC1Cc2ccccc2C1)C(=O)Nc1cccc2ccccc12 [Example 12, Nα-[L-3-trans-(2-indanylcarbamoyl)oxirane-2-carbonyl]-L-lysine-1-naphthylamide hydrochloride]",B/L,[1],> 250
same,pIC50,[1],7.40
same,pIC50,[2],< 5.00
"NCCCC[C@H](NC(=O)[C@H]1O[C@@H]1C(=O)N[C@@H](Cc1ccccc1)C(N)=O)C(=O)N(Cc1ccccc1)Cc1ccccc1 [Example 16, Nα-{L-3-trans-[(S)-1-carbamoyl-2-phenylethylcarbamoyl]oxirane-2-carbonyl}-L-lysine dibenzylamide hydrochloride]",pIC50,[1],6.66
"NCCCC[C@H](NC(=O)[C@H]1O[C@@H]1C(=O)N[C@@H](Cc1ccccc1)C(=O)NCCc1ccccc1)C(=O)Nc1cccc2ccccc12 [Example 24, Nα-{L-3-trans-[(S)-1-(2-phenylethylcarbamoyl)-2-phenylethylcarbamoyl]oxirane-2-carbonyl}-L-lysine-1-naphthylamide hydrochloride]",B/L,[1],70000
same,pIC50,[1],10.52
same,pIC50,[2],5.68
"CC(=O)NCCCC[C@H](NC(=O)[C@H]1O[C@@H]1C(=O)N[C@@H](Cc1ccccc1)C(N)=O)C(=O)Nc1cccc2ccccc12 [Example 31, Nα-{L-3-trans-[(S)-1-carbamoyl-2-phenylethylcarbamoyl]oxirane-2-carbonyl)-Nε-acetyl-L-lysine-1-naphthylamide]",pIC50,[1],8.15
"NCCCC[C@H](NC(=O)[C@H]1O[C@@H]1C(=O)N[C@@H](Cc1ccccc1)C(=O)NCCc1ccccc1)C(=O)Nc1ccccc1 [Example 35, Nα-{L-3-trans-[(S)-1-(2-phenylethylcarbamoyl)-2-phenylethylcarbamoyl]oxirane-2-carbonyl}-L-lysine anilide hydrochloride]",B/L,[1],6470
same,pIC50,[1],8.77
same,pIC50,[2],4.96
"COc1ccccc1NC(=O)[C@H](CCCCN)NC(=O)[C@H]1O[C@@H]1C(=O)N[C@@H](Cc1ccccc1)C(N)=O [Example 37, Nα-{L-3-trans-[(S)-1-carbamoyl-2-phenylethylcarbamoyl]oxirane-2-carbonyl}-L-lysine-2-methoxyanilide hydrochloride]",B/L,[1],3906
same,pIC50,[1],8.19
same,pIC50,[2],4.60
"COc1ccccc1NC(=O)[C@H](CCCCN)NC(=O)[C@H]1O[C@@H]1C(=O)N[C@@H](Cc1ccccc1)C(=O)NCCc1ccccc1 [Example 39, Nα-{L-3-trans-[(S)-1-(2-phenylethylcarbamoyl)-2-phenylethylcarbamoyl]oxirane-2-carbonyl}-L-lysine-2-methoxyanilide hydrochloride]",B/L,[1],7500
same,pIC50,[1],8.80
same,pIC50,[2],4.92
"NCCCC[C@H](NC(=O)[C@H]1O[C@@H]1C(=O)N[C@@H](Cc1ccccc1)C(=O)NCCc1ccccc1)C(=O)Nc1ccccc1C(F)(F)F [Example 43, Nα-{L-3-trans-[(S)-1-(2-phenylethylcarbamoyl)-2-phenylethylcarbamoyl]oxirane-2-carbonyl)-L-lysine-2-trifluoromethylanilide hydrochloride]",B/L,[1],30000
same,pIC50,[1],8.52
same,pIC50,[2],4.05
"NCCCC[C@H](NC(=O)[C@H]1O[C@@H]1C(=O)N[C@@H](Cc1ccccc1)C(N)=O)C(=O)N1CCc2ccccc21 [Example 45, Nα-{L-3-trans-[(S)-1-carbamoyl-2-phenylethylcarbamoyl]oxirane-2-carbonyl}-L-lysine indolinylamide hydrochloride]",B/L,[1],571
same,pIC50,[1],7.15
same,pIC50,[2],4.40
"NCCCC[C@H](NC(=O)[C@H]1O[C@@H]1C(=O)N[C@@H](Cc1ccccc1)C(=O)NCCc1ccccc1)C(=O)N1CCc2ccccc21 [Example 47, Nα-{L-3-trans-[(S)-1-(2-phenylethylcarbamoyl)-2-phenylethylcarbamoyl]oxirane-2-carbonyl}-L-lysine indolinylamide hydrochloride]",B/L,[1],150000
same,pIC50,[1],10.00
same,pIC50,[2],4.82
"NCCCC[C@H](NC(=O)[C@H]1O[C@@H]1C(=O)N[C@@H](Cc1ccccc1)C(N)=O)C(=O)Nc1ccc(Cl)c2ccccc12 [Example 48, Nα-{L-3-trans-[(S)-1-carbamoyl-2-phenylethylcarbamoyl]oxirane-2-carbonyl}-L-lysine-1-(4-chloronaphthyl)amide hydrochloride]",B/L,[1],7045
same,pIC50,[2],5.51
"NCCCC[C@H](NC(=O)[C@H]1O[C@@H]1C(=O)N[C@@H](Cc1ccccc1)C(=O)NCCc1ccccc1)C(=O)Nc1ccc(Cl)c2ccccc12 [Example 49, Nα-{L-3-trans-[(S)-1-(2-phenylethylcarbamoyl)-2-phenylethylcarbamoyl]oxirane-2-carbonyl}-L-lysine-1-(4-chloronaphthyl)amide hydrochloride]",B/L,[1],1176
same,pIC50,[1],8.77
same,pIC50,[2],5.70
"CCCNC(=O)[C@H](Cc1ccccc1)NC(=O)[C@H]1O[C@@H]1C(=O)N[C@@H](CCCCN)C(=O)Nc1cccc2ccccc12 [Example 51, Nα-{L-3-trans-[(S)-1-propylcarbamoyl-2-phenylethylcarbamoyl]oxirane-2-carbonyl-L-lysine-1-naphthylamide hydrochloride]",B/L,[1],> 85000
same,pIC50,[1],> 10.00
same,pIC50,[2],5.07
"NCCCC[C@H](NC(=O)[C@H]1O[C@@H]1C(=O)N[C@H](Cc1ccccc1)C(=O)NCCc1ccccc1)C(=O)Nc1cccc2ccccc12 [Example 53, Nα-{L-3-trans-[(R)-1-(2-phenylethylcarbamoyl)-2-phenylethylcarbamoyl]oxirane-2-carbonyl}-L-lysine-1-naphthylamide hydrochloride]",B/L,[1],333
same,pIC50,[1],7.05
same,pIC50,[2],4.52
"NCCCC[C@H](NC(=O)[C@H]1O[C@@H]1C(=O)N[C@@H](Cc1ccccc1)C(N)=O)C(=O)Nc1ccccc1 [Example 55, Nα-{L-3-trans-[(S)-1-carbamoyl-2-phenylethylcarbamoyl]oxirane-2-carbonyl}-Nε-L-lysine anilide hydrochloride]",B/L,[1],2444
same,pIC50,[1],7.74
same,pIC50,[2],4.36
"NCCCC[C@H](NC(=O)[C@H]1O[C@@H]1C(=O)N[C@@H](Cc1ccccc1)C(=O)Nc1ccccc1)C(=O)Nc1cccc2ccccc12 [Example 57, Nα-{L-3-trans-[(S)-1-phenylcarbamoyl-2-phenylethylcarbamoyl]oxirane-2-carbonyl}-L-lysine-1-naphthylamide hydrochloride]",B/L,[1],> 11111
same,pIC50,[1],8.05
same,pIC50,[2],< 5.00
"CCCNC(=O)[C@H](Cc1ccccc1)NC(=O)[C@H]1O[C@@H]1C(=O)N[C@@H](CCCCN)C(=O)Nc1ccccc1 [Example 59, Nα-{L-3-trans-[(S)-1-propylcarbamoyl-2-phenylethylcarbamoyl]oxirane-2-carbonyl}-L-lysine anilide hydrochloride]",B/L,[1],> 3703
same,pIC50,[1],8.57
same,pIC50,[2],< 5.00
"CC(C)NC(=O)[C@H](Cc1ccccc1)NC(=O)[C@H]1O[C@@H]1C(=O)N[C@@H](CCCCN)C(=O)Nc1ccccc1 [Example 61, Nα-{L-3-trans-[(S)-1-isopropylcarbamoyl-2-phenylethylcarbamoyl]oxirane-2-carbonyl}-L-lysine anilide hydrochloride]",B/L,[1],> 3571
same,pIC50,[1],8.55
same,pIC50,[2],< 5.00
"CNC(=O)[C@H](Cc1ccccc1)NC(=O)[C@H]1O[C@@H]1C(=O)N[C@@H](CCCCN)C(=O)Nc1ccccc1 [Example 63, Nα-{L-3-trans-[(S)-1-methylcarbamoyl-2-phenylethylcarbamoyl]oxirane-2-carbonyl}-L-lysine anilide hydrochloride]",B/L,[1],1923
same,pIC50,[1],8.28
same,pIC50,[2],< 5.00
"CN(C)C(=O)[C@H](Cc1ccccc1)NC(=O)[C@H]1O[C@@H]1C(=O)N[C@@H](CCCCN)C(=O)Nc1ccccc1 [Example 65, Nα-{L-3-trans-[(S)-1-dimethylcarbamoyl-2-phenylethylcarbamoyl]oxirane-2-carbonyl}-L-lysine anilide hydrochloride]",B/L,[1],> 333
same,pIC50,[1],7.52
same,pIC50,[2],< 5.00
"CCNC(=O)[C@H](Cc1ccccc1)NC(=O)[C@H]1O[C@@H]1C(=O)N[C@@H](CCCCN)C(=O)Nc1ccccc1 [Example 67, Nα-{L-3-trans-[(S)-1-ethylcarbamoyl-2-phenylethylcarbamoyl]oxirane-2-carbonyl)-L-lysine anilide hydrochloride]",B/L,[1],1570
same,pIC50,[1],7.44
same,pIC50,[2],4.17
"NCCCC[C@H](NC(=O)[C@H]1O[C@@H]1C(=O)N[C@@H](Cc1ccccc1)C(=O)NC1CCCCC1)C(=O)Nc1ccccc1 [Example 69, Nα-{L-3-trans-[(S)-1-cyclohexylcarbamoyl-2-phenylethylcarbamoyl]oxirane-2-carbonyl}-L-lysine anilide hydrochloride]",B/L,[1],> 1177
same,pIC50,[1],8.07
same,pIC50,[2],< 5.00
